Laboratory results from ChEMBL document CHEMBL6127052, “Discovery of membrane-targeting amphiphilic honokiol derivatives containing an oxazolethione moiety to combat methicillin-resistant Staphylococcus aureus (MRSA) infections” (Eur J Med Chem, 2024).
Calls of active or inactive are those of the source. The calls are words filed in the database; no cut-off is given here.

What was measured:
[1] = Toxicity in KM mouse assessed as change in platelet count at 20 mg/kg, sc measured after 24 hrs; assay type: organism-based; conditions: in vivo
[2] = Toxicity in KM mouse infected with methicillin-resistant Staphylococcus aureus clinical isolate M12 assessed as histopathological abnormality in spleen at 5 to 10 mg/kg, sc measured after 24 hrs by H and E staining based analysis; assay type: organism-based; conditions: in vivo, dose 5-10 mg/kg
[3] = Toxicity in BALB/c mouse assessed as degeneration of renal tubular epithelial cells at 15 mg/kg, ip bid for 7 days; assay type: organism-based; conditions: in vivo, 168 h, time 7 day
Staphylococcus aureus [4] = experiment: Induction of membrane depolarization in methicillin-resistant Staphylococcus aureus clinical isolate M12 at 32 times MIC measured for 10 mins by DiSC3(5) dye based analysis; assay type: functional, organism-based
[5] = Toxicity in BALB/c mouse assessed as change in blood biochemistry index at 15 mg/kg, ip bid for 7 days; assay type: organism-based; conditions: in vivo, 168 h, time 7 day
Staphylococcus aureus [6] = experiment: Antibacterial activity against methicillin-resistant Staphylococcus aureus clinical isolate M12 infected in KM mouse assessed as intact skin at infection site at 10 mg/kg, sc measured after 24 hrs; assay type: functional, organism-based
Staphylococcus aureus [7] = experiment: Antibacterial activity against methicillin-resistant Staphylococcus aureus clinical isolate M12 by CLSI based micro-broth dilution method; assay type: functional
Staphylococcus aureus [8] = experiment: Antibacterial activity against methicillin-resistant Staphylococcus aureus clinical isolate M12 infected in KM mouse assessed as decrease in erythematous pustules in intradermal tissues at 5 mg/kg, sc measured after 24 hrs; assay type: functional, organism-based
[9] = Toxicity in KM mouse assessed as inflammatory cell infiltration in renal tubular epithelial cells at 20 mg/kg, sc measured after 24 hrs by H and E staining based analysis; assay type: organism-based; conditions: in vivo
[10] = Toxicity in KM mouse assessed as pathological change in heart at 20 mg/kg, sc measured after 24 hrs by H and E staining based analysis; assay type: organism-based; conditions: in vivo
Staphylococcus aureus [11] = experiment: Antibacterial activity against methicillin-resistant Staphylococcus aureus clinical isolate M22 by CLSI based micro-broth dilution method; assay type: functional
Staphylococcus aureus [12] = experiment: (§1) Antibacterial activity against methicillin-resistant Staphylococcus aureus clinical isolate M12 infected in sepsis BALB/c mouse model assessed as decrease in necrosis in hepatocytes at 6 mg/kg, ip administered consecutively at 12 hr-interval for 24 hrs measured after 24 hrs post-last dose by H and E staining based analysis; assay type: functional, organism-based; conditions: time 48.0 hrs
Staphylococcus aureus [13] = experiment: Antibacterial activity against methicillin-resistant Staphylococcus aureus clinical isolate M12 infected in KM mouse assessed as reduction in IL-6 level at infection site at 5 mg/kg, sc measured after 24 hrs by ELISA; assay type: functional
[14] = Toxicity in KM mouse assessed as necrosis in cardiac muscle fibers at 20 mg/kg, sc measured after 24 hrs by H and E staining based analysis; assay type: organism-based; conditions: in vivo
Staphylococcus aureus [15] = experiment: Antibacterial activity against methicillin-resistant Staphylococcus aureus clinical isolate M20 by CLSI based micro-broth dilution method; assay type: functional
[16] = Toxicity in BALB/c mouse assessed as inflammatory cell infiltration in renal tubular epithelial cells at 15 mg/kg, ip bid for 7 days; assay type: organism-based; conditions: in vivo, 168 h, time 7 day
Staphylococcus aureus [17] = experiment: Antibacterial activity against methicillin-resistant Staphylococcus aureus clinical isolate M12 incubated for 16 to 18 hrs in presence of phosphatidylglycerol; assay type: functional; conditions: time 16-18 hrs
[18] = Toxicity in KM mouse infected with methicillin-resistant Staphylococcus aureus clinical isolate M12 assessed as damage in lung at 5 to 10 mg/kg, sc measured after 24 hrs by H and E staining based analysis; assay type: organism-based; conditions: in vivo, dose 5-10 mg/kg
Staphylococcus aureus [19] = experiment: Antibacterial activity against methicillin-resistant Staphylococcus aureus clinical isolate M12 infected in KM mouse assessed as decrease in erythematous pustules at infected skin on back of animal at 5 mg/kg, sc measured after 24 hrs; assay type: functional, organism-based
Staphylococcus aureus [20] = experiment: Induction of membrane permeability in methicillin-resistant Staphylococcus aureus clinical isolate M12 at 8 to 32 times MIC measured every 2 mins for 10 times by SYTOX Green dye based analysis; assay type: functional, organism-based
[21] = Toxicity in KM mouse assessed as necrosis in hepatocytes at 20 mg/kg, sc measured after 24 hrs by H and E staining based analysis; assay type: organism-based; conditions: in vivo
Staphylococcus aureus [22] = experiment: Antibacterial activity against methicillin-resistant Staphylococcus aureus clinical isolate M16 by CLSI based micro-broth dilution method; assay type: functional
Staphylococcus aureus [23] = experiment: Disruption of cell membrane in methicillin-resistant Staphylococcus aureus clinical isolate M12 assessed as fold increase in intracellular ROS level at 128 ug/ml incubated for 40 mins by DCFH-DA probe based analysis relative to control; assay type: functional; conditions: dose 128 µg/ml
[24] = Toxicity in KM mouse assessed as pathological change in spleen at 20 mg/kg, sc measured after 24 hrs by H and E staining based analysis; assay type: organism-based; conditions: in vivo
Staphylococcus aureus [25] = experiment: as §1, with “renal tubular epithelial cells” for “hepatocytes”, “6 to 12” for “6”; assay type: functional, organism-based; conditions: dose 6-12 mg/kg, time 48.0 hrs
[26] = Cytotoxicity against human L02 cells assessed as cell viability at 64 ug/ml by CCK8 assay relative to control; assay type: toxicity, cell-based; conditions: at 64 µg/mL, read-out: Activity
[27] = Toxicity in BALB/c mouse assessed as edema in hepatocytes at 15 mg/kg, ip bid for 7 days; assay type: organism-based; conditions: in vivo, 168 h, time 7 day
[28] = Toxicity in KM mouse assessed as change in urea level at 20 mg/kg, sc measured after 24 hrs; assay type: organism-based; conditions: in vivo
[29] = Toxicity in KM mouse assessed as adverse effect at 20 mg/kg, sc; assay type: organism-based; conditions: in vivo
[30] = Toxicity in BALB/c mouse assessed as loss of lustrous hair at 40 mg/kg, ip bid for 7 days; assay type: organism-based; conditions: in vivo, 168 h, time 7 day

## C=CCc1cc(-c2ccc(OCCC[N+](C)(C)CC(=O)NCCCC)c(CC=C)c2)c2oc(=S)n(Cc3ccc(F)cc3)c2c1.[Br-]
[1]
  Activity: Non-Toxic
[2]
  Activity: Non-Toxic
[3]
  Activity: Non-Toxic
Staphylococcus aureus [4]
  Activity: Active
[5]
  Activity: Non-Toxic
Staphylococcus aureus [6]
  Activity: Active
Staphylococcus aureus [7]
  MIC: 2 µg/mL
Staphylococcus aureus [8]
  Activity: inactive
[9]
  Activity: Non-Toxic
[10]
  Activity: Non-Toxic
Staphylococcus aureus [11]
  MIC: 4 µg/mL
Staphylococcus aureus [12]
  Activity: inactive
Staphylococcus aureus [13]
  Activity: 65.6 pg/mL
[14]
  Activity: Non-Toxic
Staphylococcus aureus [15]
  MIC: 2 µg/mL
[16]
  Activity: Non-Toxic
Staphylococcus aureus [17]
  MIC: 128 µg/mL
[18]
  Activity: Non-Toxic
Staphylococcus aureus [19]
  Activity: inactive
Staphylococcus aureus [20]
  Activity: Active
[21]
  Activity: Non-Toxic
Staphylococcus aureus [22]
  MIC: 2 µg/mL
Staphylococcus aureus [23]
  fold change (FC): ~1.8
[24]
  Activity: Non-Toxic
Staphylococcus aureus [25]
  Activity: Active
[26]
  viability at 64 ug/ml: ~70%
[27]
  Activity: Non-Toxic
[28]
  Activity: Non-Toxic
[29]
  Activity: Non-Toxic
[30]
  Activity: Toxic
